Source: PubChem BioAssay (NCI)
Several values for one entry are separate records, joined by “and”; a condition that tells them apart may be missing. Equal entries are not always repeated.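 Test compounds were applied to cells in 96-well plates for 48 hours at 5 doses. The concentration for 50% growth inhibition is given as GI50. TGI: total growth inhibition.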

Columns and labels:
Experiment in all cases: NCI tumour cell line growth inhibition, 48 h
[1] = tested on: RXF-631 renal
[2] = tested on: LXFL 529 NSCLC
[3] = tested on: HOP-18 NSCLC
[4] = tested on: DMS 273 small cell lung
[5] = tested on: DLD-1 colon
[6] = tested on: M19-MEL melanoma
[7] = tested on: DMS 114 small cell lung
[8] = tested on: XF 498 CNS
[9] = tested on: P388/ADR leukemia
[10] = tested on: P388 leukemia
[11] = tested on: SN12K1 renal

Row | Compound | TGI [1] [µM] | TGI [2] | TGI [3] | TGI [4] | TGI [5] [µM] | TGI [6] | TGI [7] | TGI [8] [µM] | TGI [9] [µM] | TGI [10] [µM] | TGI [11] [µM] | GI50 [4] | GI50 [6] | GI50 [7]
1 | C/C(=N\NC(N)=O)C(CN1CCCCC1)C(c1ccccc1)c1c(O)c2ccccc2oc1=O (centres undefined) | > 100 | > 100 µM | > 100 µM | > 100 µM | > 100 | > 100 µM | > 100 µM |  |  |  |  |  |  | 
2 | COc1cccc(NC(=O)CSc2nnc(-c3ccc(N=Cc4ccc(Cl)cc4)cc3)o2)c1 |  | 50.2 µM | > 100 µM |  |  | 60.8 µM | 46.9 µM | 37.7 |  |  |  |  |  | 
3 | CC1=CC(O)C(O)C2(C)C1CC1OC(=O)C(O)C3C(C)C(O)C4(O)OCC13C42 (centres undefined) |  |  | > 625 µM | > 567 µM | > 625 | 394 µM | 157 µM | 311 | > 625 | > 625 | 150 |  |  | 
4 | NC(Cc1cc(I)c(O)c(I)c1)C(=O)O (centres undefined) |  |  | > 500 µM | > 322 µM | > 500 | > 393 µM | > 293 µM | > 500 | > 364 | 160 | 246 |  |  | 
5 | O=c1[nH]c(=O)n(C2OC(COP(=O)(O)OP(=O)(O)O)C(O)C2O)cc1F (centres undefined) |  | > 50 µM | > 50 µM | > 50 µM | > 50 | > 50 µM | > 50 µM | > 50 |  |  |  |  |  | 
6 | CCOC(=O)C(C)(C)Oc1ccc2c(=O)cc(-c3ccccc3)oc2c1 |  | 35.7 µM | 54.3 µM |  |  | 41.5 µM | 44 µM |  |  |  |  |  |  | 
7 | CC1(O)C=CC2CCC1C2O (centres undefined) |  | > 100 µM | > 100 µM | > 100 µM | > 100 | > 100 µM | 32.1 µM | > 100 |  |  |  |  |  | 
8 | Cc1ccc(C(=O)N(C(C)C)C(C)C)cc1N=NN(C)C |  | > 100 µM |  | > 100 µM | > 100 | > 100 µM |  |  |  |  |  |  |  | 
9 | CN1CCn2c(Br)ccc2C1=O |  | > 100 µM |  | > 100 µM |  | > 100 µM |  | > 100 |  |  |  |  |  | 
10 | Cc1csc2c1C(=O)c1ccsc1C2=O |  | 13.3 µM | 3.73 µM | 4.45 µM | 10.6 | 0.339 µM | 3.1 µM | 5.06 |  |  |  |  |  | 
11 | COc1cc(C2C3=C(CCC3=O)Oc3cc4c(cc32)OCO4)cc(OC)c1OC (centres undefined) | 78.3 |  | > 100 µM | > 100 µM |  | > 100 µM | 0.725 µM | 0.736 |  |  |  |  |  | 
12 | CCOc1ccc2[nH]c3c(C)c4cc[n+](C)cc4c(C)c3c2c1 |  | 1.54 µM and 3.6 µM | 33.6 µM and 49.2 µM | 6.33 µM and 13.8 µM | > 100 | 2.27 µM and 4.23 µM | 2.74 µM and 4.7 µM |  |  |  |  | 0.651 µM and 1.33 µM | 0.557 µM and 1.5 µM | 0.48 µM and 1.24 µM
13 | CC(C)(C)N=C1CC(C)(C)c2ccccc2C(=Nc2ccccc2)S1 |  | > 100 µM |  | > 100 µM | > 100 | > 100 µM | 83.4 µM | 45.5 |  |  |  |  |  | 
